The target of this assay is T1, recombinant human RACK1 protein (Homo sapiens, UniProt P63244).
T1 construct: commercial recombinant protein
Description: surface plasmon resonance, bigelovin loaded on CM5 chip, RACK1 flowed over. The following applies: PBS pH 7.4, 0.05% Tween-20, 22 °C; covalent, Cys168. In kind it is binding.

As a reminder, the Kd is the equilibrium constant for the complex coming apart. As for `C=C1C(=O)O[C@H]2C[C@@H](C)[C@@H]3C=CC(=O)[C@@]3(C)[C@@H](OC(C)=O)[C@H]12` [bigelovin], the Kd amounted to 240 nM.

(Values after PMC12279247, “Inhibition of RACK1‐Mediated NLRP3 Oligomerization (Active Conformation) Ameliorates Acute Respiratory Distress Syndrome” (Advanced Science, 2025).)
